# Assay results as given in patent EP0209363B1, “Heteropeptides, intermediates in the biosynthesis of penicillins” (Antibioticos, S.A., priority 1985, dated 1987).
# Where a SMILES comes first, the peptide text is derived from it. [ ]: non-standard residue; d: D form. The star is where a group is joined. PhAc = O=C(Cc1ccccc1)*
# How the values were obtained:
# [1] = target: T1, isopenicillin N synthetase (cyclase) (Streptomyces clavuligerus, UniProt P10621); assay: Cyclization of peptide substrates by S. clavuligerus cyclase, penicillin formed measured by bioassay against M. luteus; format: biochemical; details: for kinetics of cyclization with the cyclase (Fig 1): formation of penicillin G from PCV, synthesis of isopenicillin N from ACV
# T1 construct: The broken cell suspension was ultra-centrifuged at 100,000 x g; endogenous in cells; host or cells: Streptomyces clavuligerus ATCC 27064
# T1 sequence (P10621 1-329): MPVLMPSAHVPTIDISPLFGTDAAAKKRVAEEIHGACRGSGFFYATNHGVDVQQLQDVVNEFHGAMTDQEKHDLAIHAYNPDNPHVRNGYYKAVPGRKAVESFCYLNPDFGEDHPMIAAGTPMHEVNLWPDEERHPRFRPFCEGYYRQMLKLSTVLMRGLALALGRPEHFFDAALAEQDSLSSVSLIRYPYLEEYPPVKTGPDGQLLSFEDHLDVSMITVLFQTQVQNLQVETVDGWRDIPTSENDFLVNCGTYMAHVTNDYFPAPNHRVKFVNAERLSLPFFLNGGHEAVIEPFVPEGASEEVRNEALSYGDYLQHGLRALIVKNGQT
# Procedure: S. clavuligerus ATTC 27064 was maintained and grown as described by O'Sullivan et al. in Biochem. J. 179:47-52, 1979. 250 ml of culture were harvested by centrifugation at 10,000 x g for 5 minutes, washed four times by resuspension in sterile saline solution and centrifuged as before. The precipitated cells, resuspended in 25 ml of […] Tris-HCl buffer pH 7.5 containing 0.1mM DTT (TD buffer), were sonicated as described in J. Antibiot. 35:483-490, 1982, using a Branson Sonifier Cell Disruptor (B-12). The broken cell suspension was ultra-centrifuged at 100,000 x g (Beckman L5-65B) for 90 minutes, treated with 0.2 (w/v) protamine sulphate and the clear extract precipitated with ammonium sulphate (30-80% saturation, for example 50-80% saturation). The resulting precipitate was resuspended in 3 ml of TD buffer and applied to a Sephadex (Trade Mark) G-25, PD-10 column (Pharmacia). Aliquots of 1 ml were collected and assayed for isopenicillin N synthetase (cyclase) activity. Fractions 4 and 5, containing maximal activity, were mixed and employed for the reaction. The cyclase extracts were stored frozen at -20 C. Protein was measured by the method of Lowry et al described in J. Biol. Chem. 193:265-273, 1951.
# Cyclization activity of the cyclase on ACV or PCV was assayed by a slightly modified version of the method described by Jensen et al. in J.Antibiot, 35:483-490, 1982 and in Antibiotics and Other Secondary Metabolites pages 141-164, Academic Press. The reaction mixture contained 30mM Tris-HCl buffer pH 7.5; 0.5 mM FeSO₄; 1mM bis-ACV or 3mM bis-PCV; 4mM DTT; 3 mM Na ascorbate and enzyme (10mg of protein) in a final reaction volume of 0.5 ml. The reaction mixture was incubated at 25°C for 90 min and stopped by adding 0.5ml of methanol.
# The formation of isopenicillin N and benzylpenicillin was measured by bioassay against M. luteus ATCC 9341 following the hole plate method described in Biochem. J. 103:877-890, 1967. Penicillin N and benzylpenicillin were used as standards. One unit of antibiotic (penicillin N or benzylpenicillin) gave a zone of inhibition equivalent to 1µg or 1.58 µg of penicillin N or benzylpenicillin respectively with M. luteus luteus ATCC 9341 as test organism.
# [2] = target: T2, isopenicillin N synthetase (cyclase) (Penicillium chrysogenum, UniProt P08703); assay: Cyclization of peptide substrates by P. chrysogenum cyclase, penicillin formed measured by bioassay; format: biochemical
# T2 construct: The mycelium was disrupted by sonification for 5 minutes; endogenous in cells
# T2 sequence (P08703 1-331): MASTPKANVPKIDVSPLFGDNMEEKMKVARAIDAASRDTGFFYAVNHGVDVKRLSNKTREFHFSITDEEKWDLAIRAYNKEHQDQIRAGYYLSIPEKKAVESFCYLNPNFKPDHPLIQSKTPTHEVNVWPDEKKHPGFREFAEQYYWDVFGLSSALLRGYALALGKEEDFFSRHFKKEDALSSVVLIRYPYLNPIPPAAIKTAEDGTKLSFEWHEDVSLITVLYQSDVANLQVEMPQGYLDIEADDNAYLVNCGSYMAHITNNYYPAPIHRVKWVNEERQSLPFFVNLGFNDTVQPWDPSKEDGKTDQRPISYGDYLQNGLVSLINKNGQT
# Procedure: Example 2 was repeated but using isopenicillin N synthetase extracted from a high producing strain of Penicillium chrysogenum (Penicillium chrysogenum AS-P-78, Luengo et al J. Antibiot. 144:869-876). Cells containing high isopenicillin N synthetase activity were obtained in a two stage process as described in J. Antibiot. 144:869-876. Cell free extracts were obtained as described by Ramos et al in Antimicrob. Agents Chemother. 27(3):380-387. Mycelium of P. chrysogenum was collected at 24 hours of cultivation in cephalosporin production medium (CP medium) and resuspended in 30mM Tris-HCl buffer pH 8.0 containing 0.1mM dithiothreitol (DTT). The mycelium was disrupted by sonification for 5 minutes. The extract was centrifuged at 100,000 x g for 1 hour at 4°C in a Beckman L8-70 ultracentrifuge and the resulting crude extract was stored at -20°C. Isopenicillin N synthetase were purified as previously described in Antimicrob. Agents Chemother. 27(3):380-387. The isopenicillin N and benzylpenicillin formed by cyclization of 0.2mM ACV or 2mM PCV using […] was assayed by the following bioassay. After the reactions were stopped with methanol, triplicate 50 µl samples were applied to wells 7mm in diameter in plates containing 15ml of Tryptic Soy Agar (TSA) medium (Difco) innoculated with Micrococcus luteus (0.5 ml of a culture having an O.D. of 1.0 at 600nm). Control samples of pure isopenicillin N or benzylpenicillin were treated with methanol in a similar way to the reaction samples. The samples in the assay plates were kept at 4°C for 3 hours to allow diffusion and then incubated at 30°C for 12 hours. The cell free extracts of P. chrysogenum AS-P-78 (5-20 mg of protein/ml) were incubated at 25°C for 30 minutes in a reaction mixture containing 30mM Tris-HCl buffer pH 8.1, 0.1mM FeSO₄, 6mM DTT, 3mM Na ascorbate and 3mM POCV. The pH was adjusted to 2.0.
# [3] = target: T3, isopenicillin N synthetase (cyclase) (Hapsidospora chrysogena, UniProt P05189); assay: Cyclization of peptide substrates by A. chrysogenum cyclase, penicillin formed measured by bioassay; format: biochemical, Acremonium chrysogenum
# T3 construct: The mycelium was disrupted by sonification for 2 minutes; endogenous in cells
# T3 sequence (P05189 1-338): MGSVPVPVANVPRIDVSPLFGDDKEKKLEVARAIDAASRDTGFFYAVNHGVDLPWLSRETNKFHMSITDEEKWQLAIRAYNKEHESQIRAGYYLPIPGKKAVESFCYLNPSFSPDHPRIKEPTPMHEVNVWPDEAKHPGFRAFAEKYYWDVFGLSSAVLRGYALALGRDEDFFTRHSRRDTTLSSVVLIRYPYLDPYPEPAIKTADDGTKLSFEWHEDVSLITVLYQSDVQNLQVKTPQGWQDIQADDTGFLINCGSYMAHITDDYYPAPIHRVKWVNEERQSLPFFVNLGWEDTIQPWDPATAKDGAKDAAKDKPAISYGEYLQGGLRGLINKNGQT
# Procedure: Example 2 was repeated but using isopenicillin N synthetase extracted from a high producing strain of Acremonium chrysogenum (A. chrysogenum C-10 available from A. L. Demain).
# Cells containing high isopenicillin N synthetase activity were obtained in a two stage process as described in J. Antibiot. 144:869-876. A. chrysogenum cultures were developed in seed medium for 4 days and these used to innoculate 60ml of chemically defined cephalosporin production medium, (CP medium). Cell free extracts were obtained as described by Ramos et al in Antimicrob. Agents Chemother. 27(3):380-387. Mycelium of A. chrysogenum was collected at 64 hours of cultivation in CP medium and resuspended in 30mM Tris-HCl buffer pH 8.0 containing 0.1mM dithiothreitol (DTT). The mycelium was disrupted by sonification for 2 minutes. The extract was centrifuged at 100,000 x g for 1 hour at 4°C in a Beckman L8-70 ultracentrifuge and the resulting crude extract was stored at -20 C. Isopenicillin N synthetase was purified as previously described in Antimicrob. Agents Chemother. 27(3):380-387.
# Bioassay of the isopenicillin N and benzylpenicillin formed by the A. chrysogenum cyclase was performed in a similar way to the method described in Example 3 for assaying the penicillins produced by the cyclase extracted from P. chrysogenum.
# Example 4 was repeated but using POCV as substrate in place of PCV. POCV was prepared as described in Example 5. The cyclase was extracted from A. chrysogenum AS-C-80 and incubated in the reaction mixture described in Example 5, with the exception that the pH of the Tris buffer was 7.8.
# [4] = test system: isopenicillin N synthetase, also called cyclase; details: added to the reaction mixture; cited from earlier work
compound,measurement,setting,value
"CC(C)[C@@H](NC(=O)[C@H](CS)NC(=O)CCC[C@H](N)C(=O)O)C(=O)O [ACV, δ-(L-α-aminoadipyl)-L-cysteinyl-D-valine, reference compound]",kinetics of cyclization with the cyclase (Fig 1),[1],much faster
same,sensitivity of the cyclization product to penicillin acylase,[1]; isopenicillin N obtained from the cyclization of ACV,not sensitive to penicillin acylase
same,Isopenicillin N¹ or Benzylpenicillin² (U/ml),"[1]; substrate ACV (1mM bis-ACV), control reaction mixture, 25°C, 90 min, isopenicillin N measured using penicillin N as standard",40 U/ml
same,Isopenicillin N¹ or Benzylpenicillin² (U/ml),"[1]; substrate ACV, + Penicillin acylase (2 I.U, 10 min.), isopenicillin N measured using penicillin N as standard",38 U/ml
same,Isopenicillin N¹ or Benzylpenicillin² (U/ml),"[1]; substrate ACV, + β-lactamase, isopenicillin N measured using penicillin N as standard",0 U/ml
same,inactivation of the reaction product by penicillin acylase,[2],did not occur
same,inactivation of the reaction product by penicillinase,[2],completely inactivated
same,inactivation of the reaction product by penicillinase,[3],completely inactivated
"CC(C)[C@@H](NC(=O)[C@H](CS)NC(=O)Cc1ccccc1)C(=O)O [PCV, phenylacetyl-L-cysteinyl-D-valine] (PhAc-Cys-[dV]-OH)",sensitivity of the cyclization product to β-lactamase I from Bacillus careus,[1],sensitive to β-lactamase I
same,Benzylpenicillin (U/ml),[1]; complete reaction mixture with PCV as substrate,0.15 U/ml
same,kinetics of cyclization with the cyclase (Fig 1),[1],slow time dependent course
same,activity of the cyclization product against M. luteus ATTC 9341,[1]; hole plate bioassay,active against M. luteus ATTC 9341
same,loss of antibacterial activity of the cyclization product,[1]; incubated with 2 I.U. of penicillin acylase at 30°C for 10 minutes,over 90 per cent
same,Isopenicillin N¹ or Benzylpenicillin² (U/ml),"[1]; substrate PCV (3mM bis-PCV), control reaction mixture, 25°C, 90 min, benzylpenicillin as standard",0.15 U/ml
same,Isopenicillin N¹ or Benzylpenicillin² (U/ml),"[1]; substrate PCV, + Penicillin acylase (2 I.U, 10 min.), benzylpenicillin as standard",0.01 U/ml
same,Isopenicillin N¹ or Benzylpenicillin² (U/ml),"[1]; substrate PCV, + β-lactamase, benzylpenicillin as standard",0.00 U/ml
same,inactivation of the reaction product by penicillin acylase,[2],inactivated by penicillin acylase
same,inactivation of the reaction product by penicillinase,[2],completely inactivated
same,inactivation of the reaction product by penicillin acylase,[3],inactivated by penicillin acylase
same,inactivation of the reaction product by penicillinase,[3],completely inactivated
"CC(C)[C@@H](NC(=O)[C@H](CS)NC(=O)COc1ccccc1)C(=O)O [POCV, phenoxyacetyl-L-cysteinyl-D-valine]",Penicillin V (U/ml),"[2]; complete reaction mixture, 3mM POCV, Tris-HCl buffer pH 8.1, 25°C, 30 minutes, P. chrysogenum AS-P-78 cell free extract",0.18 U/ml
same,Penicillin V (U/ml),"[3]; complete reaction mixture, 3mM POCV, Tris buffer pH 7.8, cyclase from A. chrysogenum AS-C-80",0.25 U/ml
"N[C@@H](CCC(=O)N[C@@H](CS)C(=O)NCC(=O)O)C(=O)O [glutathione, γ-glutamyl-cysteinyl-glycine]",effect on ACV cyclization,[4],inhibited
